Measurements reported in patent US10287301B2 (Achillion Pharmaceuticals, Inc., priority 2015, dated 2019).

Target: Human Factor D (Homo sapiens (Human), UniProt P00746)
Assay: Human Factor D Assay
Type: biochemical
Settings: not given
Summary of the method: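 Thioester cleavage assay: human Factor D (serum-derived, 80 nM final), substrate Z-L-Lys-SBzl with DTNB, both 100 μM final, after 5 min compound preincubation at room temperature.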

Chain of Human Factor D (P00746 26-253): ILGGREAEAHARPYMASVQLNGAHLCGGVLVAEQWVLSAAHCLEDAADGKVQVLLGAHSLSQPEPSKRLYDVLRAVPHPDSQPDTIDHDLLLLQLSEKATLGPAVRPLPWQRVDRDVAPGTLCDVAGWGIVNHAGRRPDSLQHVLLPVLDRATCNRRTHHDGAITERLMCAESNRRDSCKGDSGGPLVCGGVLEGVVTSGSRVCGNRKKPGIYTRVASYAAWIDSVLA

SMILES | IC50 [nM]
CCc1cn(CC(=O)N2NCCC2C(=O)Nc2cccc(-c3ccccc3Cl)c2F)c2ccc(-c3cnc(C)nc3)cc12 (stereo not shown) [Compound 267, N-(2′-chloro-2-fluorobiphenyl-3-yl)-2-(2-(3-ethyl-5-(2-methylpyrimidin-5-yl)-1H-indol-1-yl)acetyl)pyrazolidine-3-carboxamide] | 1000 to 10000

Same assay, conditions: Human Factor D assay of Example 8; Table 2; read-out: IC50

SMILES | IC50 [nM]
CC(=O)c1nn(CC(=O)N2C[C@H](F)C[C@H]2C(=O)Nc2cccc(C#N)n2)c2ccc(-c3cnc4cc(C)nn4c3)cc12 [Compound 265, (2S,4R)-1-(2-(3-acetyl-5-(2-methylpyrazolo[1,5-a]pyrimidin-6-yl)-1H-indazol-1-yl)acetyl)-N-(6-cyanopyridin-2-yl)-4-fluoropyrrolidine-2-carboxamide] | < 1000
CC(=O)c1nn(CC(=O)N2C[C@H](F)C[C@H]2C(=O)Nc2cccc(Br)n2)c2ccc(-c3cnc(C)nc3C)cc12 [Compound 266, (2S,4R)-1-(2-(3-acetyl-5-(2,4-dimethylpyrimidin-5-yl)-1H-indazol-1-yl)acetyl)-N-(6-bromopyridin-2-yl)-4-fluoropyrrolidine-2-carboxamide] | < 1000
CC(=O)c1nn(CC(=O)N2C[C@H](F)C[C@H]2C(=O)Nc2cccc(Br)n2)c2ccc(-c3cnc4c(C)cnn4c3)cc12 [Compound 268, (2S,4R)-1-(2-(3-acetyl-5-(3-methylpyrazolo[1,5-a]pyrimidin-6-yl)-1H-indazol-1-yl)acetyl)-N-(6-bromopyridin-2-yl)-4-fluoropyrrolidine-2-carboxamide] | < 1000
COCCNc1ncc(-c2ccc3c(c2)c(C(C)=O)nn3CC(=O)N2C[C@H](F)C[C@H]2C(=O)Nc2cccc(Br)n2)cn1 [Compound 269, (2S,4R)-1-(2-(3-acetyl-5-(2-(2-methoxyethylamino)pyrimidin-5-yl)-1H-indazol-1-yl)acetyl)-N-(6-bromopyridin-2-yl)-4-fluoropyrrolidine-2-carboxamide] | < 1000
CC(=O)c1nn(CC(=O)N2CC[C@@H](N)[C@H]2C(=O)Nc2cccc(Br)n2)c2ccc(-c3cnc(C)nc3)cc12 [Compound 270, (2S,3R)-1-(2-(3-Acetyl-5-(2-methylpyrimidin-5-yl)-1H-indazol-1-yl)acetyl)-3-amino-N-(6-bromopyridin-2-yl)pyrrolidine-2-carboxamide] | < 1000
CC(=O)c1nn(CC(=O)N2C(=O)CC[C@H]2C(=O)Nc2cccc(Br)n2)c2ccc(-c3cnc(C)nc3)cc12 [Compound 271, (S)-1-(2-(3-Acetyl-5-(2-methylpyrimidin-5-yl)-1H-indazol-1-yl)acetyl)-N-(6-bromopyridin-2-yl)-5-oxopyrrolidine-2-carboxamide] | < 1000
CC(=O)c1nn(CC(=O)N2C[C@H](F)C[C@H]2C(=O)Nc2cccc(-c3c(F)c(F)c(F)c(F)c3F)c2F)c2ccc(-c3cnc(C)nc3)cc12 [Compound 272, (2S,4R)-1-(2-(3-acetyl-5-(2-methylpyrimidin-5-yl)-1H-indazol-1-yl)acetyl)-4-fluoro-N-(2,2′,3′,4′,5′,6′-hexafluorobiphenyl-3-yl)pyrrolidine-2-carboxamide] | < 1000
CC(=O)c1nn(CC(=O)N2C[C@H](F)C[C@H]2C(=O)Nc2cccc(Br)c2F)c2ccc(-c3cnc(C)nc3)cc12 [Compound 273, (2S,4R)-1-(2-(3-acetyl-5-(2-methylpyrimidin-5-yl)-1H-indazol-1-yl)acetyl)-N-(3-bromo-2-fluorophenyl)-4-fluoropyrrolidine-2-carboxamide] | < 1000
CC(=O)c1nn(CC(=O)N2C[C@H](F)C[C@H]2C(=O)Nc2cccc(Br)n2)c2ccc(-c3cnc4cc(C(C)C)nn4c3)cc12 [Compound 274, (2S,4R)-1-(2-(3-acetyl-5-(2-isopropylpyrazolo [1,5-a]pyrimidin-6-yl)-1H-indazol-1-yl)acetyl)-N-(6-bromopyridin-2-yl)-4-fluoropyrrolidine-2-carboxamide] | < 1000
